Laboratory results reported in patent publication US20220194935A1, “PHENETHYL SUBSTITUTED IMIDAZO[4,5-C]QUINOLINE COMPOUNDS WITH AN N-1 BRANCHED GROUP” (3M INNOVATIVE PROPERTIES COMPANY, priority 2019, published 2022).

The molecules below were run against T1, human TLR7 (Homo sapiens, UniProt Q9NYK1) (assay: TLR Activation and Specificity, HEK-BLUE-hTLR7 SEAP reporter cells). Settings: 16-20 hours, at least 2× vehicle control, tested 0.01-30 micromolar.
T1 construct: host or cells: HEK293 (HEK-BLUE-hTLR7)
T1 sequence (Q9NYK1 27-1049): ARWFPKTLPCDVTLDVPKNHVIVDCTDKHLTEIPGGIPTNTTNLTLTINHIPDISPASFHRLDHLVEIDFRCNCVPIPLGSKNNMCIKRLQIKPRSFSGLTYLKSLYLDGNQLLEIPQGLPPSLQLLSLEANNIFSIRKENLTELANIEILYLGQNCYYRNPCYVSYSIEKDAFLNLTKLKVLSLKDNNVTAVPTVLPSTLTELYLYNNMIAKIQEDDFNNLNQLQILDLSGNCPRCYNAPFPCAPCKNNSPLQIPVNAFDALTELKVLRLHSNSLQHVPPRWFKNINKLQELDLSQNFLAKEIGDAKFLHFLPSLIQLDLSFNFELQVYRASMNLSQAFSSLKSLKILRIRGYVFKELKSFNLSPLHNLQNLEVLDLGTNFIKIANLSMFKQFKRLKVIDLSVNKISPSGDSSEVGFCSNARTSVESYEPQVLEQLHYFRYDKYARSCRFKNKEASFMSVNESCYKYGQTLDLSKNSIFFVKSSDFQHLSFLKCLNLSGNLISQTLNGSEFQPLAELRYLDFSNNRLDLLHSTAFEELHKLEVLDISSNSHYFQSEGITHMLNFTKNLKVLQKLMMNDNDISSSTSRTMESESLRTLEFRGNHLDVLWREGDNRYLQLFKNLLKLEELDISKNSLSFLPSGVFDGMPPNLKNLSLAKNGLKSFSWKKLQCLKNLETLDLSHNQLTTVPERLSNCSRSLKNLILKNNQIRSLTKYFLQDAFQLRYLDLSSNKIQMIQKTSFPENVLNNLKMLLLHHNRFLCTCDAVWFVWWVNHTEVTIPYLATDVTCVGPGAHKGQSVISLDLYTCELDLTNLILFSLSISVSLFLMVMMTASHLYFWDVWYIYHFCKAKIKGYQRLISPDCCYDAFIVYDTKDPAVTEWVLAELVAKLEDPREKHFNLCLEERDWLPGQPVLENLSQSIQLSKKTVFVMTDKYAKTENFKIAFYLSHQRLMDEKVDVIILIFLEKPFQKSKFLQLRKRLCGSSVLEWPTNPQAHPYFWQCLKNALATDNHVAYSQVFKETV
Assay type: cell-based
Protocol: HEK-BLUE-hTLR7 or hTLR8 reporter cells were obtained from InvivoGen, San Diego, Calif. According to the manufacturer's description, these reporter cells were prepared by co-transfection of HEK293 cells with an inducible secreted embryonic alkaline phosphatase (SEAP) reporter gene and either the human TLR7 or TLR8 gene. The SEAP reporter gene was placed under the control of an IFN-β minimal promoter fused to five NF-κB and AP-1-binding sites. In the presence of a TLR ligand, activation of NF-κB and AP-1 occurs, resulting in a corresponding increase in SEAP levels.
In the assay, the HEK cells were grown and maintained using standard cell culture techniques in a growth medium that contained Dulbecco's Modified Eagle Medium (ThermoFisher Scientific Incorporated, Waltham, Mass.) supplemented with 1% penicillin/streptomycin and 10% heat-inactivated Gibco fetal bovine serum (ThermoFisher Scientific). Each compound was solubilized in DMSO to create a 3 millimole (mM) stock solution. The stock solution was then further diluted with the growth medium to prepare serial dilutions. Each test compound was tested at a concentration of 30, 10, 3.3, 1.1, 0.37, 0.12, 0.04, and 0.01 micromolar using a 96-well format with 5×10^4 cells and 200 microliters of growth medium per well.
For each compound, hTLR7, hTLR8, and their respective null control HEK cells were screened. DMSO serially diluted into the growth medium served as the vehicle control. Cell culture supernatants containing the SEAP reporter were collected after an incubation period of 16-20 hours in a cell culture incubator (37° C. and 5% CO2), and either analyzed immediately or stored at −80° C. SEAP levels were measured using the colorimetric enzyme assay (QUANTI-BLUE (InvivoGen) according to manufacturer's instructions.
Specifically, the minimum effective concentration of each compound (micromolar) was determined as the lowest concentration of the compound that produced a SEAP expression response at least 2× greater than that observed with the vehicle control wells.
In the case of Nc1nc2ccccc2c2c1ncn2CCc1ccccc1 [Comparative Example 1, 1-phenethyl-1H-imidazo[4,5-c]quinolin-4-amine, reference compound], the “MEC to Produce TLR Activation, TLR 7” value is reported as 1.1 µM. For C[C@H](Cc1ccccc1)n1cnc2c(N)nc3ccccc3c21 [Example 1, 1-[(1R)-1-methyl-2-phenyl-ethyl]imidazo[4,5-c]quinolin-4-amine], the “MEC to Produce TLR Activation, TLR 7” value was 0.37 µM. With CCCC[C@H](Cc1ccccc1)n1cnc2c(N)nc3ccccc3c21 [Example 2, 1-[(1R)-1-benzylpentyl]imidazo[4,5-c]quinolin-4-amine] the “MEC to Produce TLR Activation, TLR 7” value was ≤0.01 µM. In the case of COC[C@@H](Cc1ccccc1)n1cnc2c(N)nc3ccccc3c21 [Example 3, 1-[(1R)-1-benzyl-2-methoxy-ethyl]imidazo[4,5-c]quinolin-4-amine], the “MEC to Produce TLR Activation, TLR 7” value is reported as 1.1 µM. With CCOC[C@@H](Cc1ccccc1)n1cnc2c(N)nc3ccccc3c21 [Example 4, 1-[(1R)-1-benzyl-2-ethoxy-ethyl]imidazo[4,5-c]quinolin-4-amine] the “MEC to Produce TLR Activation, TLR 7” value was 1.1 µM. COC[C@H](Cc1ccccc1)n1cnc2c(N)nc3ccccc3c21 [Example 5, 1-[(1S)-1-benzyl-2-methoxy-ethyl]imidazo[4,5-c]quinolin-4-amine] was tested, and the “MEC to Produce TLR Activation, TLR 7” value was ≤0.01 µM. For CCOC[C@H](Cc1ccccc1)n1cnc2c(N)nc3ccccc3c21 [Example 6, 1-[(1S)-1-benzyl-2-ethoxy-ethyl]imidazo[4,5-c]quinolin-4-amine], the “MEC to Produce TLR Activation, TLR 7” value was ≤0.01 µM. For CCCCOc1ccc(C[C@@H](CCCC)n2cnc3c(N)nc4ccccc4c32)cc1 [Example 7, 1-[(1R)-1-[(4-butoxyphenyl)methyl]pentyl]imidazo[4,5-c]quinolin-4-amine], the “MEC to Produce TLR Activation, TLR 7” value was ≤0.01 µM.
